Legend:
[1] = test system: T cell clone A7JM; conditions: A7JM against macrophages pulsed with the antigen; 7 days
[2] = test system: T cell clone K8AH; conditions: K8AH against macrophages pulsed with the antigen; 7 days
[3] = test system: serum from human patients known to be infected with M. tuberculosis; format: binding; conditions: Western blot; preliminary studies

CC[C@H](C)[C@H](NC(=O)[C@H](Cc1ccc(O)cc1)NC(=O)[C@@H]1CCCN1C(=O)[C@H](CC(=O)O)NC(=O)[C@H](CCC(=O)O)NC(=O)[C@H](CC(C)C)NC(=O)[C@@H](NC(=O)[C@H](C)N)C(C)C)C(=O)N[C@@H](CC(C)C)C(=O)N[C@@H](CC(C)C)C(=O)N[C@H](C(=O)N[C@@H](CO)C(=O)N[C@@H](CO)C(=O)N[C@@H](CCCCN)C(=O)N[C@H](C(=O)O)C(C)C)C(C)C [Peptide 22, A V L E D P Y I L L V S S K V]
Cytotoxicity [1]: 82.7 ± 10 percentages

CC[C@H](C)[C@H](NC(=O)[C@@H](NC(=O)[C@H](CCCCN)NC(=O)[C@H](CCC(=O)O)NC(=O)[C@H](CC(C)C)NC(=O)[C@H](CC(C)C)NC(=O)[C@@H]1CCCN1C(=O)[C@H](CC(C)C)NC(=O)[C@@H](N)CC(C)C)C(C)C)C(=O)NCC(=O)N[C@@H](C)C(=O)NCC(=O)N[C@@H](CCCCN)C(=O)N1CCC[C@H]1C(=O)N[C@@H](CC(C)C)C(=O)O [Peptide 24, L L P L L E K V I G A G K P L]
Cytotoxicity [2]: 86.5 ± 0.6 percentages

purified recombinant 65KD protein: purified recombinant 65KD (540 amino acid residue) protein of M. tuberculosis
Immunoreaction with antisera from infected patients [3]: immunoreacted
